Paper PMC11945657, “Microwave-Assisted Synthesis of Morpholine-Based Chalcones as Reversible MAO-A Inhibitors in the Management of Mental Depression” (Pharmaceuticals, 2025)
“And” between values parts separate entries of the source, which are not always exact repeats. Equal entries are not always repeated. Where two headings read alike, the source gives them in different places.

Columns and labels:
[1] = DPPH free radical scavenging antioxidant assay
Experimental: H2O2 produced during metabolic events in the brain may be crucial for signaling and metabolic functions. The compounds were screened to check their potential to inhibit ROS through the DPPH assay. […] However, further studies are required to confirm this effect.
The DPPH approach, which gauges the free radical scavenging activity, was used to evaluate the antioxidant properties of the compounds. The test was performed according to the literature method. The stock solution of DPPH (0.5 mM) was prepared, and methanol was used to create each dilution. The different concentrations (10, 25, 50, 75, and 100 μM) of the test compounds (C1–C15) were prepared and compared with the standard ascorbic acid. The percentage antioxidant activity of the compounds was calculated using the following formula: % Antioxidant activity = [(Aabsorbance − Atest)/Aabsorbance] × 100.

hMAO-B = target: T1, hMAO-B (Homo sapiens, UniProt P27338); assay: MAO inhibition assay (Amplex Red, fluorimetric), MAO-B
T1 sequence (P27338 1-520): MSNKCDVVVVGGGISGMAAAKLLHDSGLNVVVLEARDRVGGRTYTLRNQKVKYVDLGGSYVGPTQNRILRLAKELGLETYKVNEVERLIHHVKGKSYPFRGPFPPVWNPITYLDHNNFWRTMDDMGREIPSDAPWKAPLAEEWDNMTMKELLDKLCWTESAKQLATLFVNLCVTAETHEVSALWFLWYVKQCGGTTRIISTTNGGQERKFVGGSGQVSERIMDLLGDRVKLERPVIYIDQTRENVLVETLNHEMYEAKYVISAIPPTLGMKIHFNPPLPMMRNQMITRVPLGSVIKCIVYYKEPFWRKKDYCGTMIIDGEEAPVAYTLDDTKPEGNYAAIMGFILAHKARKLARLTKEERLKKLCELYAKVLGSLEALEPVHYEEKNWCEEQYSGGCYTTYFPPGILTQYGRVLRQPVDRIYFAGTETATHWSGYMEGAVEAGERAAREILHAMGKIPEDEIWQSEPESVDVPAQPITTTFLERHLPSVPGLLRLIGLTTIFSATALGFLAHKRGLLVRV

hMAO-A = target: T2, hMAO-A (Homo sapiens, UniProt P21397); assay: MAO inhibition assay (Amplex Red, fluorimetric), MAO-A
T2 sequence (P21397 1-527): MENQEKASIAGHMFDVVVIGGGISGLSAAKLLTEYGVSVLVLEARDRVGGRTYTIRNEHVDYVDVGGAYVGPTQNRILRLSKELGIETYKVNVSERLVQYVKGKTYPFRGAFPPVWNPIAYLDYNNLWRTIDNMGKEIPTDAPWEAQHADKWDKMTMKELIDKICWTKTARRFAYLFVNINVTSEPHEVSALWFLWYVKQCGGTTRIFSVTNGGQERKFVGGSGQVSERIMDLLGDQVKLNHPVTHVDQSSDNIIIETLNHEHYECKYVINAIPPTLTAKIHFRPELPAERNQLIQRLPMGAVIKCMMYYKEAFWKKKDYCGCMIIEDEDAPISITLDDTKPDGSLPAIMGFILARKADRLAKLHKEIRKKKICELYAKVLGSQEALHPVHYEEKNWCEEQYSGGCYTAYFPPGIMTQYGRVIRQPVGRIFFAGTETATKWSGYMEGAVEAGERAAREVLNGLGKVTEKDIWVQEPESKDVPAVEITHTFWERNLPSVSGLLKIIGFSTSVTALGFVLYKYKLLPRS

[2] = read-out: Percentage Inhibition at 20 μM MAO-B
[3] = read-out: IC50 Values MAO-A, class symbol, IC50 not calculated
[4] = read-out: Percentage Inhibition at 20 μM MAO-A, 20 μM
[5] = read-out: Percentage Inhibition at 20 μM MAO-A

| Compound | % Antioxidant Activity ([1]; 10 µM) | % Antioxidant Activity ([1]; 25 µM) | % Antioxidant Activity ([1]; 50 µM) | % Antioxidant Activity ([1]; 75 µM) | % Antioxidant Activity ([1]; 100 µM) | inhibition at 20 µM (hMAO-B; read-out: IC50 Values MAO-B) | inhibition at 20 µM (hMAO-B; [2]) | inhibition at 20 µM (hMAO-A; [3]) | inhibition at 20 µM (hMAO-A; [4]) | inhibition at 20 µM (hMAO-A; [5]) | inhibition at 20 µM (hMAO-A; read-out: IC50 Values MAO-A) | IC50 (hMAO-A) | Percentage Inhibition at 20 μM MAO-A (hMAO-A; 20 μM) | % Antioxidant Activity ([1]; 100 µM, listed as ascorbic acid) |
| --- | --- | --- | --- | --- | --- | --- | --- | --- | --- | --- | --- | --- | --- | --- |
| COc1ccccc1/C=C/C(=O)c1ccc(N2CCOCC2)cc1 [Compound C11, (E)-3-(2-Methoxyphenyl)-1-(4-morpholinophenyl)prop-2-en-1-one] | 13.89% | 16.00% | 40.26% | 27.09% | 36.45% | < 50% | 18.6% | < 50% | 21.1% | – | – | – | – | – |
| CCc1ccc(/C=C/C(=O)c2ccc(N3CCOCC3)cc2)cc1 [Compound C13, (E)-3-(4-Ethylphenyl)-1-(4-morpholinophenyl)prop-2-en-1-one] | 2.54% | 15.55% | 41.40% | 22.18% | 66.87% | < 50% | 17.5% | – | – | 7.25% | – | – | – | – |
| O=C(/C=C/c1cccc(F)c1)c1ccc(N2CCOCC2)cc1 [Compound C10, (E)-3-(3-Fluorophenyl)-1-(4-morpholinophenyl)prop-2-en-1-one] | 17.09% | 21.05% | 34.56% | 42.27% | 32.62% | < 50% | 12.4% | < 50% | 33.9% | – | – | – | – | – |
| O=C(/C=C/c1ccc(Cl)cc1)c1ccc(N2CCOCC2)cc1 [Compound C7, (E)-3-(4-Chlorophenyl)-1-(4-morpholinophenyl)prop-2-en-1-one] | 13.81% | 15.62% | 32.06% | 50% and 52.12% | 50% and 53.37% | < 50% | 7.43% | – | – | 21.4% | < 50% | – | – | – |
| O=C(/C=C/c1ccccc1Cl)c1ccc(N2CCOCC2)cc1 [Compound C12, (E)-3-(2-Chlorophenyl)-1-(4-morpholinophenyl)prop-2-en-1-one] | 3.03% | 19.54% | 40.88% | 44.56% | 35.95% | < 50% | 23.9% | – | 67.7% | – | – | 9.35 ± 0.11 µM | 67.76% | – |
| Cc1ccccc1/C=C/C(=O)c1ccc(N2CCOCC2)cc1 [Compound C15, (E)-1-(4-Morpholinophenyl)-3-(o-tolyl)prop-2-en-1-one] | 6.51% | 30.71% | 41.06% | 32.50% | 29.17% | < 50% | 25.7% | – | 6.17% | – | – | – | – | – |
| Cc1cccc(/C=C/C(=O)c2ccc(N3CCOCC3)cc2)c1 [Compound C8, (E)-1-(4-Morpholinophenyl)-3-(m-tolyl)prop-2-en-1-one] | 16.56% | 31.47% | 36.01% | 49.24% | 66.42% | < 50% | 6.32% | < 50% | 3.11% | – | – | – | – | – |
| O=C(/C=C/c1ccc(F)cc1)c1ccc(N2CCOCC2)cc1 [Compound C3, (E)-3-(4-Fluorophenyl)-1-(4-morpholinophenyl)prop-2-en-1-one] | 14.58% | 38.25% | 40.31% | 50% and 53.10% | 56.87% | < 50% | 7.11% | < 50% | 37.7% | – | – | – | – | – |
| O=C(/C=C/c1ccc(Br)cc1)c1ccc(N2CCOCC2)cc1 [Compound C1, (E)-3-(4-Bromophenyl)-1-(4-morpholinophenyl)prop-2-en-1-one] | 9.24% | 21.80% | 35.78% | 50% and 53.13% | 50% and 54.82% | < 50% | 6.59% | – | – | 13.6% | < 50% | – | – | – |
| C#CCN(C)Cc1ccccc1 [Pargyline, pargyline, reference compound] | – | – | – | – | – | – | 99% | – | – | < 50% | – | – | – | – |
| Cc1ccc(/C=C/C(=O)c2ccc(N3CCOCC3)cc2)cc1 [Compound C9, (E)-1-(4-Morpholinophenyl)-3-(p-tolyl)prop-2-en-1-one] | 8.65% | 23.43% | 35.75% | 39.19% | 44.66% | < 50% | 6.77% | – | – | 4.95% | < 50% | – | – | – |
| C#CCN(C)CCCOc1ccc(Cl)cc1Cl [Clorgyline, clorgyline, reference compound] | – | – | – | – | – | – | – | – | – | 95% | – | – | – | – |
| COc1ccc(/C=C/C(=O)c2ccc(N3CCOCC3)cc2)cc1OC [Compound C4, (E)-3-(3,4-Dimethoxyphenyl)-1-(4-morpholinophenyl)prop-2-en-1-one] | 16.37% | 32.47% | 41.07% | 33.69% | 50% and 52.62% | < 50% | 5.56% | < 50% | 15.8% | – | – | – | – | – |
| O=C(/C=C/c1ccc(Br)c(F)c1)c1ccc(N2CCOCC2)cc1 [Compound C5, (E)-3-(4-Bromo-3-fluorophenyl)-1-(4-morpholinophenyl)prop-2-en-1-one] | 19.11% | 23.41% | 38.15% | 49.88% | 50% and 50.95% | < 50% | 6.54% | < 50% | 36.8% | – | – | – | – | – |
| O=C(/C=C/c1ccc(Cl)c(Cl)c1)c1ccc(N2CCOCC2)cc1 [Compound C2, (E)-3-(3,4-Dichlorophenyl)-1-(4-morpholinophenyl)prop-2-en-1-one] | 6.63% | 25.78% | 37.18% | 50% and 50.91% | 50% and 53.12% | < 50% | 4.74% | < 50% | 19.4% | – | – | – | – | – |
| O=C1O[C@H]([C@@H](O)CO)C(O)=C1O [Ascorbic acid, ascorbic acid, reference compound] | 8.03% | 20.27% | 40.23% | 46.33% | 58.53% | – | – | – | – | – | – | – | – | 50% |
